The results in this text go back to ChEMBL document CHEMBL1909046, “DrugMatrix in vitro pharmacology data”.

The target in test [1] is Acetylcholinesterase (Homo sapiens, UniProt P22303). The experiment in a line: DRUGMATRIX: Acetylcholinesterase enzyme inhibition (substrate: acetylthiocholine). Format: cell-based, HEK293. To be noted: hek293; Not Active = under 50% inhibition at 10 µM.
The target of test [2] is Cannabinoid receptor 1 (Homo sapiens, UniProt P21554). Format: cell membranes, Chem-1, Membrane. To be noted: chem-1. Further: in other assays of this panel Not Active means under 50% inhibition at 10 µM.
The target of test [3] is T1, Muscarinic acetylcholine receptor M5 (Homo sapiens, UniProt P08912). Further: in other assays of this panel Not Active means under 50% inhibition at 10 µM.
T1 sequence (P08912 whole entry): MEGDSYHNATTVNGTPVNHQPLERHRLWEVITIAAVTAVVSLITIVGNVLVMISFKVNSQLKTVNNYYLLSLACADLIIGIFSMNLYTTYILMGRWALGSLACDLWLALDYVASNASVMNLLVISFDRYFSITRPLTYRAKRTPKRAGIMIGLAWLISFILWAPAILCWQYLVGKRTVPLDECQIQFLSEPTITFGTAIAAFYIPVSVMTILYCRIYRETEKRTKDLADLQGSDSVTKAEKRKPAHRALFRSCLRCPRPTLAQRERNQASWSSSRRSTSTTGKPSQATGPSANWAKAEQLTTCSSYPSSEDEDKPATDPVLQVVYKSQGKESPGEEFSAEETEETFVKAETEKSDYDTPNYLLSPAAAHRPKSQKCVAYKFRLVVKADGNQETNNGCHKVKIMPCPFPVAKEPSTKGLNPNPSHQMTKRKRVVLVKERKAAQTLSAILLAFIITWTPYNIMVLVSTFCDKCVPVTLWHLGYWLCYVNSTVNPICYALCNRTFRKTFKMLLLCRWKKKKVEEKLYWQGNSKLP
Format: cell membranes, CHO-K1, Membrane.

The nature of test [4]: DRUGMATRIX: Imidazoline I2, Central radioligand binding (ligand: [3H] Idazoxan). It is filed as cell membranes, Rattus norvegicus, Wistar, Cerebral cortex, Membrane. Particulars: Not Active = under 50% inhibition at 10 µM.
The target of test [5] is Epidermal growth factor receptor (Homo sapiens, UniProt P00533). Kind of test: DRUGMATRIX: Protein Tyrosine Kinase, EGF Receptor enzyme inhibition (substrate: Poly(Glu:Tyr)). It is filed as cell-based, Insect cells. Particulars: insect cells, Not Active = under 50% inhibition at 10 µM.
Test [6] can be described thus: DRUGMATRIX: Calcium Channel Type L, Dihydropyridine radioligand binding (ligand: [3H] Nitrendipine). Format: cell membranes, Rattus norvegicus, Wistar, Cerebral cortex, Membrane. To be noted: Not Active = under 50% inhibition at 10 µM.

Sequence of Cannabinoid receptor 1 (P21554 whole entry): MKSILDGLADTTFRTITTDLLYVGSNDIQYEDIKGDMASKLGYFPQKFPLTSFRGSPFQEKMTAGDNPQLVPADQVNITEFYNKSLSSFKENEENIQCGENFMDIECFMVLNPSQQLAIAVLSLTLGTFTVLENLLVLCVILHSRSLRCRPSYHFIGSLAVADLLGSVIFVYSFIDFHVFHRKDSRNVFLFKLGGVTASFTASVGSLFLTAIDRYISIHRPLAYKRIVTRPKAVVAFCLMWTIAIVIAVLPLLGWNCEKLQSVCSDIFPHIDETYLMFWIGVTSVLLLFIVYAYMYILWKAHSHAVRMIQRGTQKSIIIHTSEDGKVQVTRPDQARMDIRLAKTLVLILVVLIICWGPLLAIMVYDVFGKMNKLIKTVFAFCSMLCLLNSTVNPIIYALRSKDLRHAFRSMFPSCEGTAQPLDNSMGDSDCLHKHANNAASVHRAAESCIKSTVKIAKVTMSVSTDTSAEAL
Sequence of Acetylcholinesterase (P22303 whole entry): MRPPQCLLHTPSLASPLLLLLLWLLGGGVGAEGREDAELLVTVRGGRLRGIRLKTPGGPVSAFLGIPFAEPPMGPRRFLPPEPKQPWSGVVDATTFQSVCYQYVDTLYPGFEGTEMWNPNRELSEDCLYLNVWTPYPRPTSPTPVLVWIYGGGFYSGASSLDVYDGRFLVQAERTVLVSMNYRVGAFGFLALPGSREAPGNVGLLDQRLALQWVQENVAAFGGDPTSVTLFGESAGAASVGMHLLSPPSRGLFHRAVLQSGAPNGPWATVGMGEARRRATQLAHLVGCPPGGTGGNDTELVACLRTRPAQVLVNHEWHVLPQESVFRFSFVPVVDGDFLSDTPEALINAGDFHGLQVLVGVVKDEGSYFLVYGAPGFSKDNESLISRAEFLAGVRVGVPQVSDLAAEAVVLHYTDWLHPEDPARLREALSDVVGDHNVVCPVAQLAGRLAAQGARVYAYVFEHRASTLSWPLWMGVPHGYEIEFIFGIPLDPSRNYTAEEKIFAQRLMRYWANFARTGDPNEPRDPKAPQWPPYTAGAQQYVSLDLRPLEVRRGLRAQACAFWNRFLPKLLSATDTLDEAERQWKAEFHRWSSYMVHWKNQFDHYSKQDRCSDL

As a reminder, the IC50 is the concentration needed to halve the response being measured. In general, Ki refers to a dissociation constant, usually derived from enzyme kinetics or from competition with a known ligand. Regarding `CN1C(=O)CN=C(c2ccccc2)c2cc([N+](=O)[O-])ccc21` [NIMETAZEPAM], the IC50 result in test [1], in test [2], in test [3] (cho-k1), in test [4], in test [5] and in test [6] was “Not Active” throughout. Further, the Ki result in test [4] and in test [6] was “Not Active” throughout.
Take `COc1ccc2c(c1OC)C(=O)O[C@@H]2[C@H]1c2c(cc3c(c2OC)OCO3)CCN1C` [NOSCAPINE]: the IC50 entry in test [1], in test [2], in test [3] (cho-k1), in test [4], in test [5] and in test [6] was “Not Active” throughout. Further, the Ki result in test [4] and in test [6] was “Not Active” throughout.
On to `C[C@@H]1O[C@@H](O[C@H]2C[C@@H](O)[C@]3(CO)[C@H]4[C@H](O)C[C@]5(C)[C@@H](C6=CC(=O)OC6)CC[C@]5(O)[C@@H]4CC[C@]3(O)C2)[C@H](O)[C@H](O)[C@H]1O` [OUABAIN], for which the IC50 result in test [1], in test [2], in test [3] (cho-k1), in test [4], in test [5] and in test [6] was “Not Active” in each case. Besides, the Ki entry in test [4] and in test [6] was “Not Active” each time.
Consider `NC(=O)N1c2ccccc2CC(=O)c2ccccc21` [OXCARBAZEPINE], for which the IC50 entry in test [1], in test [2], in test [3] (cho-k1), in test [4], in test [5] and in test [6] was “Not Active” throughout. For the same compound, the Ki result in test [4] and in test [6] was “Not Active” throughout.
For the compound `COc1ccnc(C[S+]([O-])c2nc3ccc(OC(F)F)cc3[nH]2)c1OC` (stereo not drawn) [PANTOPRAZOLE], the IC50 result in test [1], in test [2], in test [3] (cho-k1), in test [4], in test [5] and in test [6] was “Not Active” throughout. Moreover, the Ki entry in test [4] and in test [6] was “Not Active” each time.
On to `N=C(N)c1ccc(OCCCCCOc2ccc(C(=N)N)cc2)cc1` [PENTAMIDINE], for which the IC50 entry in test [1] was “Not Active”; in test [2], “Not Active”; in test [3] (read-out: IC50), 2880 nM; in test [4] (read-out: IC50), 3520 nM; in test [5] it was “Not Active”; in test [6] it was “Not Active”. Besides, the Ki was 2070 nM in test [3] (read-out: Ki), 2350 nM in test [4] (read-out: Ki) and “Not Active” in test [6].
Take `NNCCc1ccccc1` [PHENELZINE]: the IC50 entry in test [1], in test [2], in test [3] (cho-k1), in test [4], in test [5] and in test [6] was “Not Active” in each case. Further, the Ki entry in test [4] and in test [6] was “Not Active” each time.
Take `CCc1ccc(CCOc2ccc(CC3SC(=O)NC3=O)cc2)nc1` (stereo not drawn) [PIOGLITAZONE]: the IC50 entry in test [1], in test [2], in test [3] (cho-k1), in test [4], in test [5] and in test [6] was “Not Active” throughout. For the same compound, the Ki entry in test [4] and in test [6] was “Not Active” each time.
As to `CCCNC(C)C(=O)Nc1ccccc1C` (stereo not drawn) [PRILOCAINE], the IC50 result in test [1], in test [2], in test [3] (cho-k1), in test [4], in test [5] and in test [6] was “Not Active” throughout. The Ki result in test [4] and in test [6] was “Not Active” throughout.
As for `CCN(CC)CCNC(=O)c1ccc(N)cc1` [PROCAINAMIDE], the IC50 entry in test [1], in test [2], in test [3] (cho-k1), in test [4], in test [5] and in test [6] was “Not Active” in each case. The Ki result in test [4] and in test [6] was “Not Active” throughout.
Consider `C[C@]12C=CC(=O)C=C1CC[C@H]1[C@@H]3C[C@@H](O)[C@](O)(C(=O)CO)[C@@]3(C)C[C@H](O)[C@@]12F` [TRIAMCINOLONE], for which the IC50 entry in test [1], in test [2], in test [3] (cho-k1), in test [4], in test [5] and in test [6] was “Not Active” in each case. Moreover, the Ki entry in test [4] and in test [6] was “Not Active” each time.
With `CC[C@]1(O)C[C@@H]2CN(CCc3c([nH]c4ccccc34)[C@@](C(=O)OC)(c3cc4c(cc3OC)N(C)[C@H]3[C@@](O)(C(N)=O)[C@H](O)[C@]5(CC)C=CCN6CC[C@]43[C@@H]65)C2)C1` [VINDESINE], the IC50 entry in test [1], in test [2], in test [3] (cho-k1), in test [4], in test [5] and in test [6] was “Not Active” in each case. Also, the Ki result in test [4] and in test [6] was “Not Active” in each case.
With `CCN(C(C)=O)c1cccc(-c2ccnc3c(C#N)cnn23)c1` [ZALEPLON], the IC50 entry in test [1], in test [2], in test [3] (cho-k1), in test [4], in test [5] and in test [6] was “Not Active” throughout. Also, the inhibitory constant (Ki) entry in test [4] and in test [6] was “Not Active” each time.
COBALTOUS CHLORIDE: the IC50 result in test [1], in test [2], in test [3] (cho-k1), in test [4], in test [5] and in test [6] was “Not Active” each time. For the same compound, the Ki entry in test [1], in test [2], in test [3] (cho-k1), in test [4], in test [5] and in test [6] was “Not Active” in each case.
For the compound COLISTIN, the IC50 result in test [1] was “Not Active”; in test [2] it was “Not Active”; in test [3] (cho-k1), “Not Active”; in test [4], “Not Active”; in test [5] (read-out: IC50), 1500 nM; in test [6], “Not Active”. In addition, the Ki result in test [1], in test [2], in test [3] (cho-k1), in test [4] and in test [6] was “Not Active” in each case.
